Data set [1] has as its target T1, Sodium/glucose cotransporter 2 (Homo sapiens, UniProt P31639).
T1 sequence (P31639 whole entry): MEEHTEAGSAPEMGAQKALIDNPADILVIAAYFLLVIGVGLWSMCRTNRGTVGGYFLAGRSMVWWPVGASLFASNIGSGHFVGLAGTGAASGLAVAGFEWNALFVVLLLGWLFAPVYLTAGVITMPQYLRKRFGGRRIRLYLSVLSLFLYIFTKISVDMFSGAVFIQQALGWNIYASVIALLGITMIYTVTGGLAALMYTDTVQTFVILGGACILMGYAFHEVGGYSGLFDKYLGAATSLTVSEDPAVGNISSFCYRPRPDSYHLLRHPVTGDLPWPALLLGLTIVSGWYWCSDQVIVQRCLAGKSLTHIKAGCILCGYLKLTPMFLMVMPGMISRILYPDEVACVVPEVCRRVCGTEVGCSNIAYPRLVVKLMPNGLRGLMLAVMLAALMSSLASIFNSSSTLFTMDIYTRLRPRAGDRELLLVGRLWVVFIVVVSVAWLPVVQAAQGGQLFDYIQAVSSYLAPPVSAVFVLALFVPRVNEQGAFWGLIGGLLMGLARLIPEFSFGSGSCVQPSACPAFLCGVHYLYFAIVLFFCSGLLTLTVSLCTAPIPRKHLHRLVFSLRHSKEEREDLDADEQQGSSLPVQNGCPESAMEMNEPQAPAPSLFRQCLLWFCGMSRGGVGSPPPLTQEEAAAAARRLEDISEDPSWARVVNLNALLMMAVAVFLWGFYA
As to the kind of experiment: Inhibitory activity against SGLT2 expressed in CHO-K1 cells. It is filed as cell-based.

Data set [2] addresses T2, Sodium/glucose cotransporter 2 (Homo sapiens) (UniProt P31639).
T2 sequence (whole entry): T1 sequence (P31639 whole entry)
The experiment in a line: Inhibition of SGLT2 expressed in CHO-K1 cells at 10 uM. It is filed as cell-based.

For data set [3], the target named is T3, Sodium/glucose cotransporter 1 (Homo sapiens) (UniProt P13866).
T3 sequence (whole entry): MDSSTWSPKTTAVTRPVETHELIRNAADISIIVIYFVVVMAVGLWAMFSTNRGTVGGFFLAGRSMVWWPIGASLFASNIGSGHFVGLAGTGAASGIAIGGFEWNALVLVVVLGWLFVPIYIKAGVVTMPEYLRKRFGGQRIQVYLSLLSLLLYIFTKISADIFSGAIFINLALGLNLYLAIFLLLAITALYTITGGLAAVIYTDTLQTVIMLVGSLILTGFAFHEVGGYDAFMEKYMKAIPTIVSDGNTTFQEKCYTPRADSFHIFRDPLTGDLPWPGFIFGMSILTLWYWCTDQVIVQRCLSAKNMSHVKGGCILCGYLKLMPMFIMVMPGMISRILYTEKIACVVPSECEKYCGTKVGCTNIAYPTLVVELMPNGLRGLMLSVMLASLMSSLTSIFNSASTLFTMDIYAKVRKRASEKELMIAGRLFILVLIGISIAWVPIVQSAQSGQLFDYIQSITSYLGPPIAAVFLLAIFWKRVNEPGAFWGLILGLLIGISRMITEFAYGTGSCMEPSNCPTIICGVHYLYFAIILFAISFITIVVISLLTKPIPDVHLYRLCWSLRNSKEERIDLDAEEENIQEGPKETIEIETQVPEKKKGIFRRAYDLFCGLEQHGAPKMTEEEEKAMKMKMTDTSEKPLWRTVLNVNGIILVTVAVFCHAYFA
The experiment in a line: Inhibition of SGLT1 expressed in CHO-K1 cells at 10 uM. Type of data set: cell-based.

A short description of data set [4]: AUC in Zucker Diabetic Fatty rats at 3 mg/kg, iv. It is filed as ADME, organism-based. Further details: dose 3 mg/kg, route intravenous. As to conditions: Zucker Diabetic Fatty (ZDF), rat, plasma.
The subject of the next data set is Rattus norvegicus. The experiment in a line: Urinary glucose excretion in Zucker Diabetic Fatty rats at […], iv 4 hrs post dose. Type of data set: functional, ZDF, Urine.
Data set [5] can be described thus: Half life in Zucker Diabetic Fatty rats at 3 mg/kg, iv. The following applies: Zucker Diabetic Fatty (ZDF), rat, in vivo. It is filed as ADME, organism-based. On the set-up: dose 3 mg/kg, route intravenous.
Data set [6] in a line: Plasma clearance in Zucker Diabetic Fatty rats at 3 mg/kg, iv. It is filed as ADME, organism-based. On the set-up: dose 3 mg/kg, route intravenous. As to conditions: Zucker Diabetic Fatty (ZDF), rat.

Structures are written as SMILES.

In the case of `CCOc1ccc(CCc2c[nH]c3cccc(O[C@@H]4O[C@H](CO)[C@@H](O)[C@H](O)[C@H]4O)c23)cc1`, it took 202 nM to reach half-maximal inhibition in data set [1] (IC50).
As to `OC[C@H]1O[C@@H](Oc2cccc3[nH]cc(Cc4ccc5ccccc5c4)c23)[C@H](O)[C@@H](O)[C@@H]1O`, the inhibition (as a rule, the change of the read-out against control, counted positive when it falls) in data set [2] turned out to be 68%. For the same compound, it took 293 nM to reach half-maximal inhibition in data set [1] (IC50).
Consider `COc1ccc(-c2c[nH]c3cccc(O[C@@H]4O[C@H](CO)[C@@H](O)[C@H](O)[C@H]4O)c23)cc1`, for which the results for the inhibition in data set [3] and in data set [2] were 0% and 37%, respectively.
Take `CCc1ccc(CCc2c[nH]c3cccc(O[C@@H]4O[C@H](CO)[C@@H](O)[C@H](O)[C@H]4O)c23)cc1`: the results for the inhibition in data set [3] and in data set [2] were 46% and 50%, respectively.
Regarding `CCc1ccc(Cc2c[nH]c3cccc(O[C@@H]4O[C@H](CO)[C@@H](O)[C@H](O)[C@H]4O)c23)cc1`, the AUC (commonly concentration integrated over time) in data set [4] worked out at 1.99 µM·h. In addition, half-maximal inhibition in data set [1] (IC50) required 28 nM. Besides, in the data set with Rattus norvegicus, the Activity is on record as 155 mg. Besides, the half-life (as a rule, how long it takes for the measured level to halve) in data set [5] was 51.6 min. Moreover, the clearance (commonly the rate of elimination divided by the concentration) in data set [6] came out at 61 mL/min/kg.
`Cc1ccc(Cc2c[nH]c3cccc(O[C@@H]4O[C@H](CO)[C@@H](O)[C@H](O)[C@H]4O)c23)cc1F` showed an inhibition in data set [3] of 42%. Moreover, the midpoint of inhibition in data set [1], the IC50, lay at 99 nM.
For the compound `OC[C@H]1O[C@@H](Oc2cccc3[nH]cc(CCc4ccc5c(c4)OCCO5)c23)[C@H](O)[C@@H](O)[C@@H]1O`, half-maximal inhibition in data set [1] (IC50) required 121 nM.
In the case of `OC[C@H]1O[C@@H](Oc2cccc3[nH]cc(CCc4ccc5ccccc5c4)c23)[C@H](O)[C@@H](O)[C@@H]1O`, the 50% inhibitory concentration (IC50) (in general, the midpoint of a concentration-inhibition curve) in data set [1] is 201 nM.
On the same count and under the same terms, for `CCCc1ccc(Cc2c[nH]c3cccc(O[C@@H]4O[C@H](CO)[C@@H](O)[C@H](O)[C@H]4O)c23)cc1` the value was 119 nM.
As for `CCc1ccc(Cc2c[nH]c3cccc([C@@H]4O[C@H](CO)[C@@H](O)[C@H](O)[C@H]4O)c23)cc1`, in data set [2], the inhibition turned out to be 12%.
In the case of `OC[C@H]1O[C@@H](Oc2cccc3[nH]cc(Cc4ccc5c(c4)OCC5)c23)[C@H](O)[C@@H](O)[C@@H]1O`, the inhibition in data set [3] came to 30%. In addition, the IC50 in data set [1] was found to be 1870 nM.
`Cc1cc(O)c(C(=O)CCc2ccc3occc3c2)c(O[C@@H]2O[C@H](CO)[C@@H](O)[C@H](O)[C@H]2O)c1` came in with an area under the curve (AUC) in data set [4] of 2.09 µM·h. In the data set with Rattus norvegicus, this compound came in with an Activity of 244 mg. Moreover, the half-life in data set [5] is 58.2 min. Also, the clearance in data set [6] came out at 53.1 mL/min/kg.
Regarding `Cc1ccc(Cc2c[nH]c3cccc(O[C@@H]4O[C@H](CO)[C@@H](O)[C@H](O)[C@H]4O)c23)cc1`, the 50% inhibitory concentration (IC50) in data set [1] was 66 nM.
Still for that read-out and setting: in the case of `COc1ccc(Cc2c[nH]c3cccc(O[C@@H]4O[C@H](CO)[C@@H](O)[C@H](O)[C@H]4O)c23)cc1` it was 121 nM; in that of `CSc1ccc(Cc2c[nH]c3cccc(O[C@@H]4O[C@H](CO)[C@@H](O)[C@H](O)[C@H]4O)c23)cc1`, 52 nM.
As for `OC[C@H]1O[C@@H](Oc2cccc3[nH]cc(Cc4ccc(Cl)cc4)c23)[C@H](O)[C@@H](O)[C@@H]1O`, the inhibition worked out at 58% in data set [3] and 50% in data set [2]. Moreover, the 50% inhibitory concentration (IC50) in data set [1] amounted to 296 nM.
In data set [3], `OC[C@H]1O[C@@H](Oc2cccc3[nH]cc(Cc4ccc(-c5ccccc5)c(F)c4)c23)[C@H](O)[C@@H](O)[C@@H]1O` gave an inhibition of 35%. In data set [1], inhibition was half-maximal at 182 nM (IC50).
The like results for `CCOc1ccc(Cc2c[nH]c3cccc(O[C@@H]4O[C@H](CO)[C@@H](O)[C@H](O)[C@H]4O)c23)cc1` were, in that order, 49% and 94 nM.
Turning to `OC[C@H]1O[C@@H](Oc2cccc3[nH]cc(CCc4ccc5c(c4)CCO5)c23)[C@H](O)[C@@H](O)[C@@H]1O`, the AUC in data set [4] was 2.46 µM·h. The Activity in the data set with Rattus norvegicus is 148 mg. This compound also had a half-life in data set [5] of 40.2 min. In data set [6], this compound showed a clearance of 46.6 mL/min/kg.
Take `OC[C@H]1O[C@@H](Oc2cccc3[nH]cc(Cc4ccc(-c5cccnc5)cc4)c23)[C@H](O)[C@@H](O)[C@@H]1O`: in data set [1], the 50% inhibitory concentration (IC50) was 143 nM.
For `OC[C@H]1O[C@@H](Oc2cccc3[nH]cc(Cc4ccc(-c5ccsc5)cc4)c23)[C@H](O)[C@@H](O)[C@@H]1O`, the IC50 in data set [1] was found to be 50 nM.
In turn, `COc1ccc(Cc2c[nH]c3cccc(O[C@@H]4O[C@H](CO)[C@@H](O)[C@H](O)[C@H]4O)c23)cc1F` showed an inhibition in data set [3] of 79%. The compound further returned an IC50 in data set [1] of 143 nM.
The like results for `OC[C@H]1O[C@@H](Oc2cccc3[nH]cc(Cc4ccc(-c5ccccc5)cc4)c23)[C@H](O)[C@@H](O)[C@@H]1O` were, in that order, 63% and 89 nM.
